# Reference: patent US20220280507A1, “USES OF 5-METHYLTETRAHYDROFOLATE AND ITS COMPOSITION” (Lianyungang Jinkang Hexin Pharmaceutical Co., Ltd., priority 2019, published 2022)
# Where two headings read alike, the source gives them in different places.
# Tests used:
# IL-1β = test: LPS-induced inflammatory response in astrocytes, IL-1β release (ELISA); assay type: cell-based, Kunming mice; settings: culture supernatant, LPS 1 μg·ml-1 + substance 10 μg·ml-1, 24 h, n=6
# Source text: Experiment 9 Inhibition of 5-Methyltetrahydrofolate and Curcumin on LPS-Induced Inflammatory Response in Astrocytes
# The cerebral cortex of Kunming mice at 1˜2 d was taken out under aseptic conditions, washed 3 times with cold PBS after removing residual meninges and blood vessels, prepared into single cell suspension by blowing, centrifuged, the supernatant was discarded, and the precipitant was resuspended in AST basic medium (high-sugar DMEM containing 10% FBS). The suspension was inoculated into a culture flask coated with poly-L-lysine (0.1 mg/ml), and cultured in a CO2 incubator. After 24 h, tissue debris and non-adherent cells were removed by replacing the medium. Afterwards, the medium was replaced every 3 days until the cells reached 80% confluence, then the flask was placed on a constant temperature rotary shaker, where the suspension was centrifuged at 180 r/min, 37° C. for 18 h to remove oligodendrocytes and microglia from the upper layer. Then trypsin digestion was used for subculture. […]
# LPS (1 μg·ml-1), LPS (1 μg·ml-1)+curcumin (10 μg·ml-1), LPS (1 μg·ml-1)+5-MTHF-Ca (10 μg·ml-1); experimental group: LPS (1 μg·ml-1)+curcumin (5 μg·ml-1)+5-MTHF-Ca (5 μg·ml-1). After 24 h, the culture supernatant was collected, and the cytokines IL-6, IL-1β and TNF-α were detected by ELISA.
# [1] = system: liver injury induced by carbon tetrachloride; settings: serum day 61, n=6
# Protocol: Experiment 3 Protection of 5-Methyltetrahydrofolate Calcium on Liver Injury Induced by Carbon Tetrachloride
# 30 SPF-grade SD rats were chosen in half female and half male and randomly divided into vehicle control group (vegetable oil), model control group (1.5 ml·kg−1, 20% carbon tetrachloride vegetable oil solvent, intraperitoneal injection every 3 days), 5-methyltetrahydrofolate calcium low-dose group (1mg·Kg−1), 5-methyltetrahydrofolate calcium medium-dose group (2 mg·Kg−1), and 5-methyltetrahydrofolate calcium high-dose group (4 mg·Kg−1) according to their body weight. 20% carbon tetrachloride vegetable oil solvent was used as the inducer, and intraperitoneal injection was performed every 3 days for a total of 60 days. After successful modeling, the administration groups were given a dosage of 5-methyltetrahydrofolate calcium as prescribed above for gavage once a day, and the model group and the normal control group were gavaged once daily with purified water for 60 consecutive days. Blood was taken on the 61st day, and the levels of ALT and AST in serum were detected.
# [2] = system: alcoholic steatohepatitis; settings: 4 mg·Kg−1 daily
# Protocol: Experiment 12 Effect of 5-Methyltetrahydrofolate on Intestine Induced by Chronic Alcohol
# (§1) 96 SPF-grade SD rats, half female and half male, were chosen with an average weight of 176-220 g at the beginning of the experiment, and randomly divided into vehicle control group (glucose, 10 g·Kg−1) and model control group (liquor, 6 g·Kg−1), 5-methyltetrahydrofolate calcium group (folic acid, 4 mg·Kg−1, glucose, 10 g·Kg−1), half female and half, 16 rats in each group. […] The day on which the dose of alcohol reached 6g·Kg−1 was defined as the first day of modeling. The intestinal permeability of rats was measured at Weeks 2 and 8, then 5 rats were sacrificed at random, blood and liver tissues were taken.
# 8 weeks later, rats in the remaining groups received fecal microbiota transplantation from patients with alcoholic steatohepatitis, and were sacrificed at Week 10, then blood and liver tissues were taken.
# 60 g of stools were collected from patients with alcoholic steatohepatitis, mixed with 300 mL of normal saline and filtered, and the bacteria solution was stored in an anaerobic bag at 4° C. for later use. After 8 weeks, the remaining rats in all groups were anesthetized with ether, and catheter was used to slowly inject the bacteria solution (2 mL) into their colon, and the rats continued to be fed with the same doses the next day. At Week 10, all rats were sacrificed, liver tissues were stained with H&E and sectioned for disease assessment. At least three different sections of each rat were studied to reasonably assess liver lesions. In order to reasonably assess fatty degeneration, necrosis, inflammation, and fibrosis of liver, liver lesions were graded into different degrees. The proportion of fatty liver cells was <50%, 50-75% and >75%, respectively, corresponding to the severity of fatty degeneration. Focal necrosis was also quantified (number of necrotic foci/mm2), and dense inflammatory infiltrates were also graded. Alcoholic steatohepatitis (ASH) is defined as the presence of inflammatory cell infiltration, spot necrosis and stem cell necrosis in the liver.
# [3] = system: intestinal barrier function; settings: chronic alcohol-fed rats, 4 mg·Kg−1
# Protocol: as §1
# An oral sugar test was carried out to evaluate intestinal permeability. After fasting for 8 h, the rats were given 2.0 ml of sugar solution,
# with lactulose (107 mg/kg), mannitol (30 mg/kg), sucralose (15 mg/kg) and sucrose (570 mg/kg). The rats were individually housed in metabolic cages, and urine was collected. The sugar concentration in the urine was determined by gas chromatography. Blood samples were used to analyze endotoxin in serum with Kinetic-QLC kit.
# [4] = 1 mg·kg−1·d−1 gavage 60 d after CCl4 modeling
# [5] = 2 mg·kg−1·d−1 gavage 60 d after CCl4 modeling
# [6] = 4 mg·kg−1·d−1 gavage 60 d after CCl4 modeling
# [7] = Week 10 after fecal microbiota transplantation, n = 6
compound,measurement,setting,value
5-methyltetrahydrofolate calcium,IL-1β,IL-1β,721.45 ± 8.79 pg/mL
same,ALT,[1]; [4],54.64 ± 20.52 IU/L
same,AST,[1]; [4],185.73 ± 63.46 IU/L
same,ALT,[1]; [5],50.54 ± 20.12 IU/L
same,AST,[1]; [5],156.97 ± 50.35 IU/L
same,ALT,[1]; [6],40.84 ± 16.31 IU/L
same,AST,[1]; [6],125.87 ± 43.84 IU/L
"CN1c2c([nH]c(N)nc2=O)NCC1CNc1ccc(C(=O)N[C@@H](CCC(=O)O)C(=O)O)cc1 (stereo partly drawn) [5-methyltetrahydrofolate, N-[4-[[(2-amino-1,4,5,6,7,8-hexahydro-4-oxo-5-methyl-(6S), -(6R), and (6R,S)-pteridyl)methyl)amino)toluoyl-glutamic acid]","Case percentage: fatty degeneration, percentage of fatty liver cells 50-75%","[2]; Week 8, n = 5",20%
same,"Case percentage: fatty degeneration, percentage of fatty liver cells < 50%","[2]; Week 8, n = 5",80%
same,"Case percentage: fatty degeneration, percentage of fatty liver cells > 75%","[2]; Week 8, n = 5",0%
same,Case percentage: inflammatory foci 1-4 pcs/mm^2,"[2]; Week 8, n = 5",0%
same,Case percentage: inflammatory foci <1 pc/mm^2,"[2]; Week 8, n = 5",100%
same,Case percentage: inflammatory foci >4 pcs/mm^2,"[2]; Week 8, n = 5",0%
same,Case percentage: liver fibrosis,"[2]; Week 8, n = 5",0%
same,Case percentage: necrosis foci 1-3 pcs/mm^2,"[2]; Week 8, n = 5",0%
same,Case percentage: necrosis foci <1 pc/mm^2,"[2]; Week 8, n = 5",100%
same,Case percentage: necrosis foci >3 pcs/mm^2,"[2]; Week 8, n = 5",0%
same,"Case percentage: fatty degeneration, percentage of fatty liver cells 50-75%",[2]; [7],33.3%
same,"Case percentage: fatty degeneration, percentage of fatty liver cells < 50%",[2]; [7],66.7%
same,"Case percentage: fatty degeneration, percentage of fatty liver cells > 75%",[2]; [7],0%
same,Case percentage: inflammatory foci 1-4 pcs/mm^2,[2]; [7],0%
same,Case percentage: inflammatory foci <1 pc/mm^2,[2]; [7],100%
same,Case percentage: inflammatory foci >4 pcs/mm^2,[2]; [7],0%
same,Case percentage: liver fibrosis,[2]; [7],0%
same,Case percentage: necrosis foci 1-3 pcs/mm^2,[2]; [7],0%
same,Case percentage: necrosis foci <1 pc/mm^2,[2]; [7],100%
same,Case percentage: necrosis foci >3 pcs/mm^2,[2]; [7],0%
same,Intestinal barrier function,[3],can improve intestinal barrier function in the presence of alcohol
same,Serum endotoxin level,[3],reduce serum endotoxin level
